Patent US20250041476A1, “ENHANCED PERFORMANCE SOLUTION FOR TISSUE GRAFTS” (The Curators of the University of Missouri, priority 2020, published 2025)

Experiments:
[1] = tested on: integrin β1; settings: chondrocytes; cited from earlier work
[2] = tested on: L929 mouse connective tissue fibroblasts; assay: Cell proliferation reagent WST-1 cell viability assay on scaffolds; assay type: cell-based; settings: scaffolds crosslinked with 3 mM genipin
Protocol: L-929 mouse fibroblast cells were obtained from ATCC (Manassas, VA). They were cultured in EMEM (ATCC, Manassas, VA, USA) supplemented with 10% (v/v) horse serum (Sigma-Aldrich, St. Louis, MO, USA) and 200 U mL^−1 penicillin-streptomycin (Sigma-Aldrich, St. Louis, MO, USA) solution in an incubator at 37° C. and 5% CO2. 1 mL of 3×10^4 cell/mL cell solution was plated on each scaffold and allowed to grow for 1, 3, 7, or 10 days with fresh media being replaced every […].
Cell proliferation reagent WST-1 (Roche Diagnostics Corporation, Indianapolis, IN, USA) was used to evaluate the biocompatibility of the scaffolds. The WST-1 assay works via the use of tetrazolium salts. The salts were added to wells containing cells and the tissue discs. The tetrazolium salts were then cleaved to formazan by mitochondrial dehydrogenase activity. This correlates to the number of metabolically active cells. The resulting formazan was quantified using UV-vis absorbance measurements. […] After gentle mixing, 100 μL was removed from each well and absorbance readings were acquired using a Tecan Safire II plate reader. The resulting values were then calculated relative to the absorbance found on the untreated control scaffold. […]

[3] = Modulated differential scanning calorimetry of tissue scaffolds; assay type: physicochemical
Protocol: Following crosslinking, five specimens (n=5) from the 7 treatment types were rinsed in DI water and placed in an aluminum pan with a hermetic lid. The treatment types were EDC/NHS, untreated, 15 minutes crosslinking with 3 mM genipin, 4 hours crosslinking with 3 mM genipin, 8 hours crosslinking with 3 mM genipin, 24 hours crosslinking with 3 mM genipin, and 24 hours crosslinking with 10 mM genipin. The 10 mM treatment type was added to verify that increasing the genipin concentration would further increase the amount of crosslinking that occurred. The reference pan consisted of an aluminum pan containing […] of double distilled water and sealed with a hermetic lid. Each specimen was then subjected to modulated differential scanning calorimetry using a Q2000 DSC (TA Instruments, New Castle, DE, USA) to raise the temperature from 5° C. to 120° C. at a rate of 5° C. per minute with a modulation of ±0.64° C. every 80 s. The mean denaturation temperature is reported.

COC(=O)C1=CO[C@@H](O)[C@@H]2C(CO)=CC[C@H]12 [genipin, methyl (1S,2R,6S)-2-hydroxy-9-(hydroxymethyl)-3-oxabicyclo[4.3.0]nona-4,8-diene-5-carboxylate]
mRNA expression of integrin β1 [1]: halved | Cytotoxicity (biocompatibility results) [2]: not cytotoxic | Denaturation temperature of tissue scaffold ([3]; 15 minutes of genipin crosslinking, 3 mM, vs untreated): significantly increases | Denaturation temperature of tissue scaffold ([3]; 24 hours of crosslinking, 3 mM genipin): significant increase | Denaturation temperature of tissue scaffold ([3]; higher genipin concentration (10 mM vs 3 mM), 24 hours): significantly increased
